In article PMC9186491, “Novel Small Molecule Tyrosine Kinase 2 Pseudokinase Ligands Block Cytokine-Induced TYK2-Mediated Signaling Pathways” (Frontiers in Immunology, 2022):
“And” between values parts separate entries of the source, which are not always exact repeats. Equal values may be shown once. Read-outs that look alike come from different tables or passages of the source.

Key:
[1] = molecular target: T1, TYK2 JH2 pseudokinase domain (Homo sapiens, UniProt P29597); assay: KdELECT competition binding assay, TYK2 JH2; details: isolated TYK2 JH2 domain
T1 construct: purchased Eurofins DiscoverX Corporation (contract assay)
T1 sequence (P29597 589-875 limits assumed): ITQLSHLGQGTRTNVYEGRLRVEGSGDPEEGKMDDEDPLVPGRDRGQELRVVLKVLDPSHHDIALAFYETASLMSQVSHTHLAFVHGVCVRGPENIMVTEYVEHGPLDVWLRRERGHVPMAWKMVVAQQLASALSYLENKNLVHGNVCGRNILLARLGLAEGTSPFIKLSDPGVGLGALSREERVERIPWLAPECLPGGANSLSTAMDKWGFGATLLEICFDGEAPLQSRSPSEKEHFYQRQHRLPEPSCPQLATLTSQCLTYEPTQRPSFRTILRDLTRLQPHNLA
Experimental: The KdELECT competition assays were performed to test the binding affinity of compounds to the JH1 kinase region or JH2 pseudokinase region in TYK2 or JAK by ligand competition with JH1 or JH2 protein segments. The assay was carried out at Eurofins DiscoverX Corporation following the established standard protocol (DiscoverX, San Diego, CA). In this assay, compounds that bind to the kinase or pseudokinase protein regions prevent the protein binding to the immobilized ligand and reduce the amount of kinase matter captured on the solid surface. […] Dissociation constants (Kds) for test compound-kinase interactions are calculated by measuring the amount of kinase captured on the solid support as a function of the test compound concentration. […] The ligated beads were blocked with excess biotin and washed with blocking buffer to remove unbound ligand and to reduce nonspecific binding. […] All reactions were performed in polypropylene 384-well plates with a final volume of 20 μL. […] The beads were then re-suspended in the elution buffer and incubated at room temperature with shaking for 30 minutes. The kinase concentration in the eluant was measured by qPCR. Two replicates were performed and averaged to obtain the Kd measurement.

[2] = test system: IFNα-induced TYK2-mediated IRF activity in Jurkat-Dual T cells; assay: Jurkat T cell reporter assay for IFNα-induced TYK2-mediated IRF activity; type: cell-based; details: Homo sapiens, SEAP
Source text: Jurkat-Dual™ T cells (In vivogen, jktd-isnf) were purchased from In vivogen (San Diego, CA). The cells feature the dual-reporter system, with a Lucia luciferase gene driven by an interferon-β (IFN-β) minimal promoter fused to the NFκB consensus transcriptional response element and the c-Rel binding site, as well as a secreted embryonic alkaline phosphatase (SEAP) reporter gene under the control of an IFN-stimulated gene 54 (ISG54) minimal promoter in conjunction with five IFN-stimulated response elements. With the dual-reporter design, Jurkat-Dual™ cells allow the simultaneous investigation of both the NFκB pathway, by monitoring the Lucia luciferase, and the interferon regulatory factor (IRF) pathway, by assessing the activity of SEAP. In this study, the Jurkat-Dual™ T cells were plated at a sterilized U-shaped 96-well plate in RPMI (Thermo Fisher) containing 10% heat-inactivated Fetal Bovine Serum (FBS) (Thermo Fisher) and 100 U/mL Penicillin-Streptomycin (Thermo Fisher) at a density of 2.0 × 10^6/mL. Seeded cells were treated with serially diluted compounds and stimulated with 80 ng/mL human recombinant IFNα (Biolegend, # 592702) overnight in a humidified, 5% CO2 cell culture incubator at 37°C. Activity of SEAP was then detected from the cell cultured supernatant according to the manufacturer’s instructions.

JAK1 = JAK1 (Homo sapiens, UniProt P23458); assay: Z'LYTE JAK kinase inhibition assay, JAK1; type: biochemical; details: read-out: JAK Catalytic Selectivity (IC50) JAK1
Sequence of JAK1 (P23458 whole entry): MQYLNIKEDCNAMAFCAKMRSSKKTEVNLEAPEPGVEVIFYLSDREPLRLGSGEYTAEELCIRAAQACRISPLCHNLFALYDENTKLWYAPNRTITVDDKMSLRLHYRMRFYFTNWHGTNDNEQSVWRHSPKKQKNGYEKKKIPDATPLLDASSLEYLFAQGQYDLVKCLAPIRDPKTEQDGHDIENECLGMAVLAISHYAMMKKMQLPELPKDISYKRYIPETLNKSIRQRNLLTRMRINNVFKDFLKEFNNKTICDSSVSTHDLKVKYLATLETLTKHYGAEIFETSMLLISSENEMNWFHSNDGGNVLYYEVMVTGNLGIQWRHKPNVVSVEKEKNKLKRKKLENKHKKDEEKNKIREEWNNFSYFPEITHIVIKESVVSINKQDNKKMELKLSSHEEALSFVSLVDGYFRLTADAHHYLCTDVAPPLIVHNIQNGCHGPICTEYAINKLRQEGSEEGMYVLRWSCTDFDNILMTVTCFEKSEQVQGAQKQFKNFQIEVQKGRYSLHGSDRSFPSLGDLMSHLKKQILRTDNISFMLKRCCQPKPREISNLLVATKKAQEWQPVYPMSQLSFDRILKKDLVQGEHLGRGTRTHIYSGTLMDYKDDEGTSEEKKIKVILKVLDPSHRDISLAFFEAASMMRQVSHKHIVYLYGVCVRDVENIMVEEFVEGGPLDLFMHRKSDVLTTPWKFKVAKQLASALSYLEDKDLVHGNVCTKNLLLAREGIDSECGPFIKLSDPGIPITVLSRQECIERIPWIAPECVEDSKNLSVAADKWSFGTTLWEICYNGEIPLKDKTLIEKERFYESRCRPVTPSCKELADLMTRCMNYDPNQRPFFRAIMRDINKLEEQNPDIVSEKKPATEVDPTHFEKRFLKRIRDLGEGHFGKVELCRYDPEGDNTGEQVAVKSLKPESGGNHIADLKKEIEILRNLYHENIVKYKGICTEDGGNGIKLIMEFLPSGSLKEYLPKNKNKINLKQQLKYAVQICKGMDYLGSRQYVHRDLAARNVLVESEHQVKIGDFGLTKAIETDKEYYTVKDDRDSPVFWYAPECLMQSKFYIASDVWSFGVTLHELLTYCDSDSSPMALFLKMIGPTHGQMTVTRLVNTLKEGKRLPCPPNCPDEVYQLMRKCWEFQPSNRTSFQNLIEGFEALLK

JAK2 = JAK2 (Homo sapiens, UniProt O60674); assay: Z'LYTE JAK kinase inhibition assay, JAK2; type: biochemical; details: read-out: JAK Catalytic Selectivity (IC50) JAK2
Sequence of JAK2 (O60674 whole entry): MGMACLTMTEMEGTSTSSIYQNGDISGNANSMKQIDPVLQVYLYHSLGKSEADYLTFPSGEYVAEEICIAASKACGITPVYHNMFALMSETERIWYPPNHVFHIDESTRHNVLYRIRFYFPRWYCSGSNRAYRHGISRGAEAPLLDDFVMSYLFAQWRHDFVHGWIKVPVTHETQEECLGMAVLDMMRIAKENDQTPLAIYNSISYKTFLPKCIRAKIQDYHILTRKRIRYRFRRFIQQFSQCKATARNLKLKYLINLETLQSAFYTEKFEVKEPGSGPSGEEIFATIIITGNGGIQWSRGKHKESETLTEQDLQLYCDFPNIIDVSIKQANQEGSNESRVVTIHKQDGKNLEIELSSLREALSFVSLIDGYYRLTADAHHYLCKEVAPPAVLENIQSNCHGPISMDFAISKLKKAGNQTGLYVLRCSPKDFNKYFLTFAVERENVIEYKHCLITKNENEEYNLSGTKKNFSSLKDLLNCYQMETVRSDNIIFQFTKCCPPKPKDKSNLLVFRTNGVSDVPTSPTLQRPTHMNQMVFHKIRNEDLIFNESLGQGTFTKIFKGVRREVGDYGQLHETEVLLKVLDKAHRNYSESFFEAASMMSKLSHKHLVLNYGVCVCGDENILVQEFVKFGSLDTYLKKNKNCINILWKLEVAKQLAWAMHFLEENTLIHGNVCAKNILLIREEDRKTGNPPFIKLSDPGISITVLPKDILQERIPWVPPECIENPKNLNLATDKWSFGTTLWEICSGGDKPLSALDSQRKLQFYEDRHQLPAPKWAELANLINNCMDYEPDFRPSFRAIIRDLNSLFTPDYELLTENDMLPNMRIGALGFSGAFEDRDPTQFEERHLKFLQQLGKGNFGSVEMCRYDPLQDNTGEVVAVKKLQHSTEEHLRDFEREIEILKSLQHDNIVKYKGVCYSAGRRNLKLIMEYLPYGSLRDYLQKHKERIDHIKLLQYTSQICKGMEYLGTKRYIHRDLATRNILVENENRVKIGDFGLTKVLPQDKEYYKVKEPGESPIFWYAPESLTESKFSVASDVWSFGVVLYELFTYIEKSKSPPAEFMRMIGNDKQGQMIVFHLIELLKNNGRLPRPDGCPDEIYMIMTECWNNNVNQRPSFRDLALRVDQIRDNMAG

JAK3 = molecular target: T2, JAK3 (Homo sapiens, UniProt P52333); assay: Z'LYTE JAK kinase inhibition assay, JAK3; type: biochemical; details: read-out: JAK Catalytic Selectivity (IC50) JAK3
T2 sequence (P52333 1-1124): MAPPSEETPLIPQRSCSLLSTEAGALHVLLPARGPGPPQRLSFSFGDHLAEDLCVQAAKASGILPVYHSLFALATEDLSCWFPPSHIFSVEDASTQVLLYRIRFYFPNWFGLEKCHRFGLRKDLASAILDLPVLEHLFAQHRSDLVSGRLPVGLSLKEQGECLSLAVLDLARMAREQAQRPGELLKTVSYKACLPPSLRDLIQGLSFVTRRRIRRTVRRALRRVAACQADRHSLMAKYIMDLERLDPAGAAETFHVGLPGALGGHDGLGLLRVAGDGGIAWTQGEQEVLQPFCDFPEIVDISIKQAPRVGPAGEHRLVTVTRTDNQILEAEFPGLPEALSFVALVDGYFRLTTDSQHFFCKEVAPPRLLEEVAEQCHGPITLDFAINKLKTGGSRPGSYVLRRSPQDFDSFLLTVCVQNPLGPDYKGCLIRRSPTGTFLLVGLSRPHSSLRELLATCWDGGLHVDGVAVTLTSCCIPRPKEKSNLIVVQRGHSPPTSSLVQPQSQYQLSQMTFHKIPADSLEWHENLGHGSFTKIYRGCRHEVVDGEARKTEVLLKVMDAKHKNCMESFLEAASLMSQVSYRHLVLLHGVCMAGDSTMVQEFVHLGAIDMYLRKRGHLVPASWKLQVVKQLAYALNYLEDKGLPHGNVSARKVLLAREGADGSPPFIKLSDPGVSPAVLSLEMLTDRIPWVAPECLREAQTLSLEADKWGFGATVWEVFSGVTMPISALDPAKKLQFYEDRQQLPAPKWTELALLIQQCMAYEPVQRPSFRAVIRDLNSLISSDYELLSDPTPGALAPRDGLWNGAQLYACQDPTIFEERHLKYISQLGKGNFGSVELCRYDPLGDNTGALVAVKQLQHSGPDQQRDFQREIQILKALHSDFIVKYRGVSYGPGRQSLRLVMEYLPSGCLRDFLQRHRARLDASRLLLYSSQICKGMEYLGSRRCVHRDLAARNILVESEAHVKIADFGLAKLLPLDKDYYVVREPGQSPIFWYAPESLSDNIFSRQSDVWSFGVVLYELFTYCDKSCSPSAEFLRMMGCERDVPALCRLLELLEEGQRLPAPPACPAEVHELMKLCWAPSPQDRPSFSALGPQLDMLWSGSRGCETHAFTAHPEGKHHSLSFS

[3] = test system: JAK1-dependent IL6-induced phosphorylation of STAT3 (Tyr705) in TF1 cells; assay: JAK cellular selectivity assay, IL6-pSTAT3 (JAK1); type: cell-based; details: Homo sapiens, TF-1; TF1 cells; read-out: JAK Cellular Selectivity (IC50) IL6-pSTAT3 (JAK1)
Experimental: The cells were then ready for the assay after incubating for 2 hours in a humidified, 5% CO2 cell culture incubator at 37°C. […] The curve fit was generated, and statistical analysis was performed using GraphPad Prism. IC50 values were derived by non-linear regression analysis and defined as the compound concentration at which the response level was reduced to half of its maximum relative to a DMSO control.

LM T1/2, H = type: in vitro ADME; details: human, liver microsomes
LM T1/2, R = type: in vitro ADME; details: rat, liver microsomes
PPB, R = type: in vitro ADME; details: rat, plasma
CYP450 2D6 = CYP450 2D6 (Homo sapiens, UniProt P10635); assay: CYP450 inhibition, 2D6; type: in vitro ADME
Sequence of CYP450 2D6 (P10635 whole entry): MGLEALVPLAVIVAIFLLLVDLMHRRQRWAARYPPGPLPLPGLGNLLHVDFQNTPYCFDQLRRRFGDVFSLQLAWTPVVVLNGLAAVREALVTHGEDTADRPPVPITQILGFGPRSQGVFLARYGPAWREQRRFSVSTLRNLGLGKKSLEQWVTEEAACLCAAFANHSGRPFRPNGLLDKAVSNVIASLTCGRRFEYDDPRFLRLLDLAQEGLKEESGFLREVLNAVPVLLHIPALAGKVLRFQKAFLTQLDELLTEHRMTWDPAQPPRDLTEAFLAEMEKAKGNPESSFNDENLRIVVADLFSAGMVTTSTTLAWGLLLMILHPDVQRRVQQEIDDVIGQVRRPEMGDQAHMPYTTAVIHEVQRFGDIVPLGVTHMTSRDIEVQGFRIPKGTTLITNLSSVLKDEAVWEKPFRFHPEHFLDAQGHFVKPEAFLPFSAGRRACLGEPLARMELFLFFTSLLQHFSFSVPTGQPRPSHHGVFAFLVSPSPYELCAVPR

CYP450 3A4 = CYP450 3A4 (Homo sapiens, UniProt P08684); assay: CYP450 inhibition, 3A4; type: in vitro ADME
Sequence of CYP450 3A4 (P08684 whole entry): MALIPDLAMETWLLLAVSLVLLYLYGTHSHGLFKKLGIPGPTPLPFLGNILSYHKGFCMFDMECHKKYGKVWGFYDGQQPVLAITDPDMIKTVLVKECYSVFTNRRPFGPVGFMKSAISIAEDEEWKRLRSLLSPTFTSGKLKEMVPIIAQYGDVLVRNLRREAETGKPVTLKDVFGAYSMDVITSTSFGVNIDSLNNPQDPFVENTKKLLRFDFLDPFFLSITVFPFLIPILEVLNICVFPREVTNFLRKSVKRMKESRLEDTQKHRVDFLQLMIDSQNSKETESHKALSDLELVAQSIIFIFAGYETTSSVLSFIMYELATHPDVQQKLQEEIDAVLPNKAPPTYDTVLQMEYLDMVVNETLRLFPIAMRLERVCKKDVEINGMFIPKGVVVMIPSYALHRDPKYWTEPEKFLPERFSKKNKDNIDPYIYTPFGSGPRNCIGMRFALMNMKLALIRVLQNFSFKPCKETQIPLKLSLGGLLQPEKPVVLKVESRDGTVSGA

[4] = 3A4(m), read-out: CYP450 3A4(m)
[5] = 3A4(t), read-out: CYP450 3A4(t)

Structure (SMILES)	Kd [1]	IC50 [2] [µM]	IC50 (JAK1) [µM]	IC50 (JAK2) [µM]	IC50 (JAK3) [µM]	IC50 [3] [µM]	half-life (LM T1/2, H) [h]	half-life (LM T1/2, R) [h]	fraction unbound (PPB, R)	IC50 (CYP450 2D6) [µM]	IC50 (CYP450 3A4; [4]) [µM]	IC50 (CYP450 3A4; [5]) [µM]
CNC(=O)c1nnc(NC(=O)C2CC2)c2[nH]c(-c3ccc(N)cc3OC)cc12 [SHR2396]	0.029 nM and 0.019 nM	0.0097	> 10	> 10	> 10	0.15 ± 0.059	> 2.32	> 1.12	0.0474	> 30	> 30	> 30
[2H]C([2H])([2H])NC(=O)c1nnc(NC(=O)N2CCC2)cc1Nc1cccc(-c2ncn(C)n2)c1OC [SHR9332]	0.04 nM	0.055	> 10	> 10	> 10	2.8 ± 1.7	0.792	> 1.12	0.254	> 30	> 30	> 30
CNC(=O)c1nnc(NC(=O)N2CCC2)cc1Nc1cccc(-c2ncn(C)n2)c1OC [SHR8751]	0.032 nM	0.048	> 10	> 10	> 10	5.8 ± 3.7	> 2.32	> 1.12	0.329	> 30	> 30	> 30
